Results published in PubChem BioAssay AID2060503 (Molecular Pharmacology Branch, DTP, NCI, 2025).
pIC50: −log10 of the molar value.

Test system: 817829-284-R-J1-PDC complex spheroids, viability
Experiment: Anticancer human tumor 817829-284-R-J1-PDC patient-derived colon adenocarcinoma cell line growth inhibition [GQUAD]
Settings: for pIC50: curve of first compound; for viability, T/C: stronger effect = lower value
In short: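 Viability of tumor cells grown as complex spheroids with endothelial and stromal cells, exposed to drug combinations. Top concentration at or near clinical Cmax (else 10 microM), diluted in half-log increments.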

[1] = second compound 0.0316 µM, first compound 0.0316 µM
[2] = second compound 0.0316 µM, first compound 0.1 µM
[3] = second compound 0.0316 µM, first compound 0.316 µM
[4] = second compound 0.0316 µM, first compound 1 µM
[5] = second compound 0.0316 µM, first compound 3.16 µM
[6] = second compound 0.0316 µM, first compound 10 µM
[7] = second compound 0.1 µM, first compound 0.0316 µM
[8] = second compound 0.1 µM, first compound 0.1 µM
[9] = second compound 0.1 µM, first compound 0.316 µM
[10] = second compound 0.1 µM, first compound 1 µM
[11] = second compound 0.1 µM, first compound 3.16 µM
[12] = second compound 0.1 µM, first compound 10 µM
[13] = second compound 0.316 µM, first compound 0.0316 µM
[14] = second compound 0.316 µM, first compound 0.1 µM
[15] = second compound 0.316 µM, first compound 0.316 µM
[16] = second compound 0.316 µM, first compound 1 µM
[17] = second compound 0.316 µM, first compound 3.16 µM
[18] = second compound 0.316 µM, first compound 10 µM
[19] = second compound 1 µM, first compound 0.0316 µM
[20] = second compound 1 µM, first compound 0.1 µM
[21] = second compound 1 µM, first compound 0.316 µM
[22] = second compound 1 µM, first compound 1 µM
[23] = second compound 1 µM, first compound 3.16 µM
[24] = second compound 1 µM, first compound 10 µM
[25] = second compound 3.16 µM, first compound 0.0316 µM
[26] = second compound 3.16 µM, first compound 0.1 µM
[27] = second compound 3.16 µM, first compound 0.316 µM
[28] = second compound 3.16 µM, first compound 1 µM
[29] = second compound 3.16 µM, first compound 3.16 µM
[30] = second compound 3.16 µM, first compound 10 µM
[31] = second compound 10 µM, first compound 0.0316 µM
[32] = second compound 10 µM, first compound 0.1 µM
[33] = second compound 10 µM, first compound 0.316 µM
[34] = second compound 10 µM, first compound 1 µM
[35] = second compound 10 µM, first compound 3.16 µM
[36] = second compound 10 µM, first compound 10 µM
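Also: spheroids exposed to agents for 7 days before readout.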
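For viability, T/C in this document: percent viability relative to DMSO vehicle control taken as 100%.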

`C=CCn1c(=O)c2cnc(Nc3ccc(N4CCN(C)CC4)cc3)nc2n1-c1cccc(C(C)(C)O)n1` + Cc1cnc(CNC(=O)c2c(=O)c3ccc(N4CCCN(C)CC4)nc3n3c2sc2ccccc23)cn1 gave a pIC50 (second compound 0.0316 µM) of 7.28, a pIC50 (second compound 0.1 µM) of over 7.50 and a pIC50 (second compound 0.316 µM) of over 7.50. For the same molecule, the pIC50 (second compound 1 µM) was over 7.50, the pIC50 (second compound 3.16 µM) was over 7.50 and the pIC50 (second compound 10 µM) was over 7.50. The viability, T/C [1] was 61.2%, the viability, T/C [2] was 35.9% and the viability, T/C [3] was 17.1%. For the same molecule, the viability, T/C [4] was 6.1%, the viability, T/C [5] was 4.9% and the viability, T/C [6] was 4.63%. It also gave a viability, T/C [7] of 25.2%, a viability, T/C [8] of 25.4% and a viability, T/C [9] of 13.4%. For the same molecule, the viability, T/C [10] was 10.5%, the viability, T/C [11] was 7.47% and the viability, T/C [12] was 6.17%. For the same molecule, the viability, T/C [13] was 20.3%, the viability, T/C [14] was 18.2% and the viability, T/C [15] was 15.1%. For the same molecule, the viability, T/C [16] was 10.6%, the viability, T/C [17] was 8.59% and the viability, T/C [18] was 7.12%. It also gave a viability, T/C [19] of 16.9%, a viability, T/C [20] of 20.6% and a viability, T/C [21] of 13.9%. For the same molecule, the viability, T/C [22] was 10.2%, the viability, T/C [23] was 7.61% and the viability, T/C [24] was 6.9%. It also gave a viability, T/C [25] of 18.4%, a viability, T/C [26] of 17% and a viability, T/C [27] of 14.1%. For the same molecule, the viability, T/C [28] was 9.62%, the viability, T/C [29] was 6.71% and the viability, T/C [30] was 6.66%. It also gave a viability, T/C [31] of 0.11%, a viability, T/C [32] of 0.15% and a viability, T/C [33] of 0.15%. For the same molecule, the viability, T/C [34] was 0.14%, the viability, T/C [35] was 0.17% and the viability, T/C [36] was 0.2%.

With `CC(C)(O)C1CCC(Nc2ccc3ncc(-c4cccc(C(F)(F)F)c4)n3n2)CC1` (centres undefined) + Cc1cnc(CNC(=O)c2c(=O)c3ccc(N4CCCN(C)CC4)nc3n3c2sc2ccccc23)cn1 the pIC50 (second compound 0.0316 µM) was 6.28, the pIC50 (second compound 0.1 µM) was over 7.50 and the pIC50 (second compound 0.316 µM) was over 7.50. For the same molecule, the pIC50 (second compound 1 µM) was over 7.50, the pIC50 (second compound 3.16 µM) was over 7.50 and the pIC50 (second compound 10 µM) was over 7.50. The viability, T/C [1] was 63.1%, the viability, T/C [2] was 53.3% and the viability, T/C [3] was 76.1%. It also gave a viability, T/C [4] of 32.3%, a viability, T/C [5] of 5.43% and a viability, T/C [6] of 13.3%. For the same molecule, the viability, T/C [7] was 31.4%, the viability, T/C [8] was 36.8% and the viability, T/C [9] was 26%. The viability, T/C [10] was 20.4%, the viability, T/C [11] was 7.21% and the viability, T/C [12] was 8.8%. The viability, T/C [13] was 22.4%, the viability, T/C [14] was 25.3% and the viability, T/C [15] was 25.3%. It also gave a viability, T/C [16] of 16.4%, a viability, T/C [17] of 1.35% and a viability, T/C [18] of 3.38%. The viability, T/C [19] was 16.6%, the viability, T/C [20] was 21.5% and the viability, T/C [21] was 21%. It also gave a viability, T/C [22] of 15.8%, a viability, T/C [23] of 0.04% and a viability, T/C [24] of 0.05%. It also gave a viability, T/C [25] of 20.8%, a viability, T/C [26] of 18% and a viability, T/C [27] of 19.1%. For the same molecule, the viability, T/C [28] was 9.34%, the viability, T/C [29] was 0.09% and the viability, T/C [30] was 0.09%. The viability, T/C [31] was 0.11%, the viability, T/C [32] was 0.13% and the viability, T/C [33] was 0.17%. The viability, T/C [34] was 0.12%, the viability, T/C [35] was 0.19% and the viability, T/C [36] was 0.18%.
